{"source": "patent US20080269337A1", "about": "“Method for the enhancing biocidal activity” (priority 2007, published 2008)", "key": {"[1]": {"test_system": "aqueous industrial systems", "conditions": "U.S. Pat. Nos. 5,607,597 and 5,736,056; cited from earlier work"}, "B. cereus ATCC14579": {"test_system": "B. cereus ATCC14579", "assay": "B. cereus in synthetic medium, serial dilution and plating", "format": "cell-based", "conditions": "20 mg/l bistridecylsulfosuccinate with 1 or 2 mg/l isothiazolinone", "description": "The spore forming bacterium B. cereus is of particular concern because of its pathogenic properties. Most incidents of food poisoning attributed to the genus Bacillus are caused by B. cereus. B. cereus is a common concern in production of dairy products. There is particular concern about this organism in powered milk based products for infants. This is a concern not only to producers of these goods but also to the manufacturers of packaging and containers for such products. […] A culture of B. cereus ATCC14579 was treated with isothiazolinone alone and isothiazolinone with bistridecylsulfosuccinate One ml of bacteria from an overnight culture was used to innocculate shake flasks containing 50 mls of fresh synthetic medium. The synthetic medium (as described previously) was dosed with isothiazolinone at one or two mg/l concentration; or isothiazolinone in conjunction with 20 mg/l bistridecylsulfosuccinate. Cultures were maintained shaking at 37° C. then carried through serial dilution and plated at 3 and 5 hour time points."}, "B. subtilus (ATCC23059)": {"test_system": "B. subtilus (ATCC23059)", "assay": "B. subtilus in synthetic medium, serial dilution and plating", "format": "cell-based", "procedure": "By definition a potentiator compound will not, by itself, kill or inhibit the bacterial population. The non-toxicity of bistridecylsulfosuccinate to B. subtilus is illustrated in Table 4. One ml of bacteria from an overnight culture was used to innocculate shake flasks containing 50 mls of fresh synthetic medium. The synthetic medium (as described previously) was augmented with increasing amounts of bistridecylsulfosuccinate. Serial dilution and plating was carried out to compare the efficacy of each treatment. The culture of B. subtilus was grown in the presence of 0, 5, 10, and 20 mg/l bistridecylsulfosuccinate (Btdss). Plating was carried out at 2.5 hours and 5 hours of incubation. […] The control had no treatment."}}}
{"molecule": "CCCCC(CC)COC(=O)CC(C(=O)OCC(CC)CCCC)S(=O)(=O)O", "note": "(stereo not drawn) [dioctyl, dioctylsulfosuccinate]", "values": [{"measurement": "Effect on efficacy of isothiazolinone", "setting": "[1]", "result": "enhance the efficacy of isothiazolinone"}]}
{"molecule": "bistridecylsulfosuccinate [Btdss]", "values": [{"measurement": "Effect on efficacy of isothiazolinone against B. cereus", "setting": "B. cereus ATCC14579", "result": "greatly enhanced the efficacy of isothiazolinone"}, {"measurement": "B. subtilus count in synthetic medium", "setting": "B. subtilus (ATCC23059); 5 mg/l Btdss alone, 2.4 Hour", "result": "3.40 × 10^6"}, {"measurement": "B. subtilus count in synthetic medium", "setting": "B. subtilus (ATCC23059); 5 mg/l Btdss alone, 5 Hour", "result": "4.00 × 10^6"}, {"measurement": "B. subtilus count in synthetic medium", "setting": "B. subtilus (ATCC23059); 10 mg/l Btdss alone, 2.4 Hour", "result": "2.8 × 10^6"}, {"measurement": "B. subtilus count in synthetic medium", "setting": "B. subtilus (ATCC23059); 10 mg/l Btdss alone, 5 Hour", "result": "3.90 × 10^7"}, {"measurement": "B. subtilus count in synthetic medium", "setting": "B. subtilus (ATCC23059); 20 mg/l Btdss alone, 2.4 Hour", "result": "3.00 × 10^6"}, {"measurement": "B. subtilus count in synthetic medium", "setting": "B. subtilus (ATCC23059); 20 mg/l Btdss alone, 5 Hour", "result": "3.6 × 10^7"}, {"measurement": "Growth of treated cultures relative to the untreated control", "setting": "B. subtilus (ATCC23059); 5, 10, and 20 mg/l bistridecylsulfosuccinate alone", "result": "increased growth relative to the untreated control"}, {"measurement": "Toxicity to B. subtilus", "setting": "B. subtilus (ATCC23059); alone, at concentrations at least as high as 20 mg/l", "result": "non-toxic"}, {"measurement": "Effect on efficacy of isothiazolinone", "setting": "[1]", "result": "loss of efficacy"}]}
{"molecule": "dinonylsulfosuccinates", "values": [{"measurement": "Effect on efficacy of isothiazolinone", "setting": "[1]", "result": "enhance the efficacy of isothiazolinone"}]}
